{"source": "patent US20250114337A1", "about": "“METHODS FOR VASCULAR REGENERATION AND WOUND TREATMENT” (THE METHODIST HOSPITAL, priority 2022, published 2025)", "key": {"[1]": {"system": "ischemic hindlimb mice model", "assay": "hindlimb ischemia recovery in WT C57BL/6 mice, laser doppler imaging", "format": "in vivo, mouse", "conditions": "OSMI4 10 mg/kg 0, 1, 2 days post-surgery; younger mice (8 to 12 weeks)", "method": "O-GlcNAcylation manipulations regulated recovery from tissue ischemia. To determine if the change in O-GlcNAcylation can modulate limb ischemia recovery, and contributes to vascular recovery, WT C57BL/6 mice were treated with the O-GlcNAcylation inhibitor, OSMI4, or O-GlcNAcylation enhancer, TMG 0, 1, 2 days post-surgery. Age is an important factor that determines recovery, and younger mice are known to have a more robust angiogenic response as compared with older mice. Accordingly, younger mice (between 8 to 12 weeks) were used to assess the impairment of angiogenesis by OSMI (which reduces O-GlcNAcylation). Older mice (around 20 weeks) were used to assess the enhancement of angiogenesis by TMG (which increases O-GlcNAcylation). […] It will be determined whether this beneficial effect is mediated by increased DNA accessibility and enhanced transdifferentiation.\nTo determine if O-GlcNAcylation manipulations can modulate the overall effect of vascular recovery from limb ischemia. WT C57BL/6 mice were treated with the O-GlcNAcylation inhibitor. OSMI4 (10 mg/kg), or O-GlcNAcylation enhancer. TMG (10 mg/kg) 0, 1, 2 days post-surgery (FIG. 19A)."}, "[2]": {"system": "BJ fibroblasts", "assay": "in vitro transdifferentiation of fibroblasts to induced endothelial cells (iECs)", "format": "cell-based, human", "conditions": "fibroblasts exposed during transdifferentiation protocol", "description": "Innate immune activation is required for transdifferentiation. […] 131 (3): p. 300-9). iECs generated from this protocol manifest high fidelity for endothelial lineage. They incorporate acetylated LDL (FIG. 2B), form tubular networks (FIG. 2C), have similar transcriptomes as genuine endothelial cells, and increase capillary density and perfusion when injected into the ischemic hindlimb of the mouse (FIG. 2D) (Sayed, N., et al., Circulation, 2015. 131 (3): p. 300-9). This protocol can be utilized to study the role of O-GlcNAcylation in transdifferentiation in vitro.\nO-GlcNAcylation is required for in vitro transdifferentiation. To define if the elevation of O-GlcNAcylation is required for transdifferentiation, fibroblasts were exposed to Thiamet G (TMG) (an OGA inhibitor that enhances O-GlcNAcylation) or DON (an inhibitor for GFAT that acts upstream in the hexosamine biosynthesis pathway and reduces O-GlcNAcylation). The number of iECs generated during transdifferentiation is increased when fibroblasts are exposed to TMG and decreased when exposed to DON (FIG. 5A). […] The role of O-GlcNAcylation of specific epigenetic regulars e.g., HIRA during transdifferentiation can also be addressed.\nTo define if the elevation of O-GlcNAcylation is required for transdifferentiation, inhibitors of O-GlcNAcylation including OSMI (an inhibitor for OGT) and DON (an inhibitor for GFAT that acts upstream in the hexosamine biosynthesis pathway and reduces O-GlcNAcylation) or an activator of O-GlcNAcylation. Thiamet G (TMG) (an OGA inhibitor that enhances O-GlcNAcylation), were delivered to BJ fibroblasts undergoing transdifferentiation. The number of CD31 expressing iECs generated during transdifferentiation decreases when exposed to OSMI or DON and increases when fibroblasts are exposed to TMG (FIG. 17B). Then OGT or OGA were knocked down using shRNA in the BJ fibroblasts (FIG. 17C) and performed transdifferentiation protocol in vitro."}}, "note": "“Also recorded” adds a separate entry of the source."}
{"smiles": "CCOC(=O)CN(Cc1cccs1)C(=O)[C@H](NS(=O)(=O)c1cc2ccc(=O)[nH]c2cc1Cl)c1ccccc1OC", "note": "[OSMI]", "values": [{"measurement": "recovery of blood flow post femoral artery ligation (revascularization)", "setting": "[1]", "value": "impaired recovery; also recorded: impairs"}, {"measurement": "iEC yield (number of CD31 expressing iECs generated during transdifferentiation)", "setting": "[2]", "value": "decreases; also recorded: impair"}]}
